Where “and” joins values, the source holds several entries; their conditions need not be identical. Equal entries are not always repeated.
Columns and labels:
[1] = biological target: T1, Alpha-2C adrenergic receptor (Rattus norvegicus, UniProt P22086)
T1 sequence (P22086 whole entry): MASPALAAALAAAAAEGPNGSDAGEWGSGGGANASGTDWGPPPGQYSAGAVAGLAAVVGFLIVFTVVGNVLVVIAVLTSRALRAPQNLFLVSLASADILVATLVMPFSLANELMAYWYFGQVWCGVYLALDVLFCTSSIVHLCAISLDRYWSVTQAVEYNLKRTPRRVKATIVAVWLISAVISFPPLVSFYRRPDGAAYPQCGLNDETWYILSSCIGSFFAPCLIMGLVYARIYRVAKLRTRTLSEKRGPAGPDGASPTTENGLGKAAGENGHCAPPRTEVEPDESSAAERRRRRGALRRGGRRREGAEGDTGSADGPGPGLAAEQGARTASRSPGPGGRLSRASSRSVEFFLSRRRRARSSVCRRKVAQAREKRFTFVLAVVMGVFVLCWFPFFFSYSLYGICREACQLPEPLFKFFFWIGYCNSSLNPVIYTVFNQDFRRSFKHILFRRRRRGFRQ

[2] = biological target: T2, Alpha-1A adrenergic receptor (Rattus norvegicus, UniProt P43140)
T2 sequence (P43140 whole entry): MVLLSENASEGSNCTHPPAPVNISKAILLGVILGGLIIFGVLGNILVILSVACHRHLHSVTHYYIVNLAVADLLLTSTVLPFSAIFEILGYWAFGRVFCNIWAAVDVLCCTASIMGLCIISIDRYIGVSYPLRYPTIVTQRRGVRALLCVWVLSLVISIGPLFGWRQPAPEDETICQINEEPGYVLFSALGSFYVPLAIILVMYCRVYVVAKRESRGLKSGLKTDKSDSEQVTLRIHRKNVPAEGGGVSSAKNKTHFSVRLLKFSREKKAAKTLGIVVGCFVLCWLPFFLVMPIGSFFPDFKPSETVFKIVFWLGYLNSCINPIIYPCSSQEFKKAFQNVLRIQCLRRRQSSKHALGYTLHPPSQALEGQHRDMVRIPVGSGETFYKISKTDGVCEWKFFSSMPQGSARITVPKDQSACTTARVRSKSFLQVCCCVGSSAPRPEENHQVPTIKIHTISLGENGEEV

**Q.** With O=C(c1ccc(F)cc1)C1CCN(CCn2c(=S)[nH]c3ccccc3c2=O)CC1 as the compound, how does the Ki [1] read?
**A.** 290 nM and 200 nM and 280 nM and 71 nM

**Q.** CN1C[C@H](C(=O)N[C@]2(C)O[C@@]3(O)[C@@H]4CCCN4C(=O)[C@H](Cc4ccccc4)N3C2=O)C=C2c3cccc4[nH]cc(c34)C[C@H]21 [12'-hydroxy-2'-methyl-5'alpha-(phenylmethyl)ergotaman-3',6',18-trione] was tested. Which Ki [2] did it give?
**A.** 25 nM

**Q.** What about the Ki [1] of the same compound?
**A.** 12 nM and 4 nM and 3.5 nM and 6.3 nM

**Q.** What does the source list for c1ccc(CC2=NCCN2)cc1 [Tolazoline]?
**A.** Ki [2]: 3200 nM; Ki [1]: 450 nM and 120 nM and 890 nM and 500 nM

**Q.** Which results are given for Cc1ccc2nc(C)c(CCN3CCC(C(=O)c4ccc(F)cc4)CC3)c(=O)n2c1 [CAS_72005]?
**A.** Ki [2]: 7.9 nM; Ki [1]: 10 nM and 2.5 nM and 2.8 nM

**Q.** Which Ki [2] does the source give for Cc1nc2n(c(=O)c1CCN1CCC(C(=O)c3ccc(F)cc3)CC1)CCS2 [CAS_86487-64-1] here?
**A.** 32 nM

**Q.** What does the source list for Cc1nc2ccccn2c(=O)c1CCN1CCC(C(=O)c2ccc(F)cc2)CC1?
**A.** Ki [2]: 20 nM; Ki [1]: 7.9 nM and 4.5 nM and 18 nM and 20 nM

**Q.** For N#Cc1ccc2c(c1)N(CCCN1CCC(O)CC1)c1ccccc1S2, which Ki [2] is on record?
**A.** 4.1 nM

**Q.** What does the source list for O=C(c1ccc(F)cc1)C1CCN(CCCCn2c(=O)[nH]c3ccccc3c2=O)CC1 [CAS_87051-46-5]?
**A.** Ki [2]: 0.45 nM; Ki [1]: 500 nM and 400 nM and 66 nM and 60 nM

**Q.** For CS(=O)(=O)c1ccc2c(c1)N(CCCN1CCC(C(N)=O)CC1)c1ccccc1S2 [NSC_26388], which Ki [2] is on record?
**A.** 2.5 nM

**Q.** c1ccc2c(c1)OCC(C1=NCCN1)O2 (configuration not stated) was tested. Which Ki [2] did it give?
**A.** 1000 nM

**Q.** CN1CCN(CC/C=C2/c3ccccc3Sc3ccc(S(=O)(=O)N(C)C)cc32)CC1 [MLS000028463] was tested. Which Ki [2] did it give?
**A.** 25 nM

**Q.** What about the Ki [1] of the same compound?
**A.** 1200 nM and 1400 nM
